# Measurements: US9302999B2, “Substituted triazoles as herbicides” (E. I. DU PONT DE NEMOURS AND COMPANY, priority 2012, dated 2016)
# Experiments:
# Assay type in all cases: in vivo
# [1] = tested on: galium (catchweed bedstraw, Galium aparine); test: Test C pre-/postemergence: galium
# In short: (§1)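 Preemergence on seeds in loam/sand, postemergence on 2–18 cm (1–4-leaf) plants in peat-based medium; compounds in non-phytotoxic solvent with surfactant. After 13–15 days in greenhouse, visual rating versus controls, 0 (no effect) to 100 (complete control).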
# [2] = tested on: lambsquarters (Chenopodium album); test: Test C pre-/postemergence: lambsquarters; conditions: Postemergence
# In short: as §1
# [3] = tested on: velvetleaf (Abutilon theophrasti); test: Test C pre-/postemergence: velvetleaf
# In short: as §1
# [4] = tested on: blackgrass (Alopecurus myosuroides); test: Test C pre-/postemergence: blackgrass
# In short: as §1
# [5] = tested on: winter wheat (Triticum aestivum); test: Test C pre-/postemergence: winter wheat
# In short: as §1
# [6] = tested on: nutsedge, yellow (yellow nutsedge, Cyperus esculentus); test: Test C pre-/postemergence: nutsedge, yellow
# In short: as §1
# [7] = tested on: foxtail, giant (giant foxtail, Setaria faberii); test: Test A pre-/postemergence: foxtail, giant
# In short: (§2)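 Seeds were sown in loam/sand blend and sprayed preemergence (directed soil spray) and, simultaneously, postemergence at 2–10 cm, one- to two-leaf stage, using compounds in non-phytotoxic solvent with surfactant. After ~10 days in greenhouse, injury was rated visually versus untreated controls, 0 (no effect) to 100 (complete control).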
# [8] = tested on: pigweed (Amaranthus retroflexus); test: Test C pre-/postemergence: pigweed
# In short: as §1
# [9] = tested on: soybean (Glycine max); test: Test C pre-/postemergence: soybean
# In short: as §1
# [10] = tested on: foxtail, giant (giant foxtail, Setaria faberii); test: Test C pre-/postemergence: foxtail, giant
# In short: as §1
# [11] = tested on: crabgrass, large (large crabgrass, Digitaria sanguinalis); test: Test A pre-/postemergence: crabgrass, large
# In short: as §2
# [12] = tested on: velvetleaf (Abutilon theophrasti); test: Test A pre-/postemergence: velvetleaf
# In short: as §2
# [13] = Postemergence, 31 g ai/ha, scale 0 to 100 (0 no effect, 100 complete control)
# [14] = Postemergence, 62 g ai/ha, scale 0 to 100 (0 no effect, 100 complete control)
# [15] = Postemergence, 125 g ai/ha, scale 0 to 100, 0 no effect, 100 complete control
# [16] = Postemergence, 250 g ai/ha, scale 0 to 100
# [17] = Preemergence, 31 g ai/ha, scale 0 (no effect) to 100 (complete control)
# [18] = Preemergence, 62 g ai/ha, scale of 0 to 100, 0 is no effect, 100 is complete control
# [19] = Preemergence, 125 g ai/ha, scale 0 to 100, 0 no effect, 100 complete control
# [20] = Preemergence, 250 g ai/ha, scale 0 to 100, 0 no effect, 100 complete control
# [21] = Postemergence, 125 g ai/ha, 0 to 100 scale, 0 is no effect, 100 is complete control
# [22] = Postemergence, 500 g ai/ha, 0 to 100 scale, 0 is no effect, 100 is complete control
# [23] = Preemergence, 125 g ai/ha, 0 to 100 scale where 0 is no effect and 100 is complete control
# [24] = Preemergence, 500 g ai/ha, 0 to 100 scale (0 no effect, 100 complete control)
smiles,measurement,setting,value
CCc1nn(-c2ccc(F)cc2)nc1Oc1ccnc(C(F)(F)F)c1 [Compound 166],"Plant response rating, Galium",[1]; [13],50
same,"Plant response rating, Galium",[1]; [14],50
same,"Plant response rating, Galium",[1]; [15],60
same,"Plant response rating, Galium",[1]; [16],80
same,"Plant response rating, Galium",[1]; [17],10
same,"Plant response rating, Galium",[1]; [18],10
same,"Plant response rating, Galium",[1]; [19],90
same,"Plant response rating, Galium",[1]; [20],100
same,"Plant response rating, Lambsquarters","[2]; 31 g ai/ha, scale 0 to 100 (0 no effect, 100 complete control)",60
same,"Plant response rating, Lambsquarters","[2]; 62 g ai/ha, scale 0 to 100 (0 no effect, 100 complete control)",95
same,"Plant response rating, Lambsquarters","[2]; 125 g ai/ha, scale 0 to 100, 0 no effect, 100 complete control",95
same,"Plant response rating, Lambsquarters","[2]; 250 g ai/ha, scale 0 to 100",98
same,"Plant response rating, Velvetleaf",[3]; [13],10
same,"Plant response rating, Velvetleaf",[3]; [14],20
same,"Plant response rating, Velvetleaf",[3]; [15],20
same,"Plant response rating, Velvetleaf",[3]; [16],30
same,"Plant response rating, Velvetleaf",[3]; [17],0
same,"Plant response rating, Velvetleaf",[3]; [18],0
same,"Plant response rating, Velvetleaf",[3]; [19],15
same,"Plant response rating, Velvetleaf",[3]; [20],60
same,"Plant response rating, Blackgrass",[4]; [13],10
same,"Plant response rating, Blackgrass",[4]; [14],20
same,"Plant response rating, Blackgrass",[4]; [15],40
same,"Plant response rating, Blackgrass",[4]; [16],60
same,"Plant response rating, Blackgrass",[4]; [17],15
same,"Plant response rating, Blackgrass",[4]; [18],90
same,"Plant response rating, Blackgrass",[4]; [19],90
same,"Plant response rating, Blackgrass",[4]; [20],95
same,"Plant response rating, Wheat",[5]; [13],5
same,"Plant response rating, Wheat",[5]; [14],5
same,"Plant response rating, Wheat",[5]; [15],5
same,"Plant response rating, Wheat",[5]; [16],10
same,"Plant response rating, Wheat",[5]; [17],0
same,"Plant response rating, Wheat",[5]; [18],0
same,"Plant response rating, Wheat",[5]; [19],5
same,"Plant response rating, Wheat",[5]; [20],15
same,"Plant response rating, Nutsedge, Yellow",[6]; [13],0
same,"Plant response rating, Nutsedge, Yellow",[6]; [14],5
same,"Plant response rating, Nutsedge, Yellow",[6]; [15],5
same,"Plant response rating, Nutsedge, Yellow",[6]; [16],10
same,"Plant response rating, Nutsedge, Yellow",[6]; [17],0
same,"Plant response rating, Nutsedge, Yellow",[6]; [18],0
same,"Plant response rating, Nutsedge, Yellow",[6]; [19],5
same,"Plant response rating, Nutsedge, Yellow",[6]; [20],15
same,"Plant response rating, Foxtail, Giant",[7]; [21],90
same,"Foxtail, Giant plant response rating",[7]; [22],90
same,"Plant response rating, Foxtail, Giant",[7]; [23],100
same,"Plant response rating, Foxtail, Giant",[7]; [24],100
same,"Plant response rating, Pigweed",[8]; [13],35
same,"Plant response rating, Pigweed",[8]; [14],85
same,"Plant response rating, Pigweed",[8]; [15],95
same,"Plant response rating, Pigweed",[8]; [16],98
same,"Plant response rating, Pigweed",[8]; [17],100
same,"Plant response rating, Pigweed",[8]; [18],100
same,"Plant response rating, Pigweed",[8]; [19],100
same,"Plant response rating, Pigweed",[8]; [20],100
same,"Plant response rating, Soybean",[9]; [13],35
same,"Plant response rating, Soybean",[9]; [14],35
same,"Plant response rating, Soybean",[9]; [15],35
same,"Plant response rating, Soybean",[9]; [16],35
same,"Plant response rating, Soybean",[9]; [17],5
same,"Plant response rating, Soybean",[9]; [18],5
same,"Plant response rating, Soybean",[9]; [19],20
same,"Plant response rating, Soybean",[9]; [20],35
same,"Plant response rating, Foxtail, Giant",[10]; [13],20
same,"Plant response rating, Foxtail, Giant",[10]; [14],40
same,"Plant response rating, Foxtail, Giant",[10]; [15],40
same,"Plant response rating, Foxtail, Giant",[10]; [16],40
same,"Plant response rating, Foxtail, Giant",[10]; [17],100
same,"Plant response rating, Foxtail, Giant",[10]; [18],100
same,"Plant response rating, Foxtail, Giant",[10]; [19],100
same,"Plant response rating, Foxtail, Giant",[10]; [20],100
same,"Plant response rating, Crabgrass, Large",[11]; [21],90
same,"Crabgrass, Large plant response rating",[11]; [22],90
same,"Plant response rating, Crabgrass, Large",[11]; [23],100
same,"Plant response rating, Crabgrass, Large",[11]; [24],100
same,"Plant response rating, Velvetleaf",[12]; [21],80
same,Velvetleaf plant response rating,[12]; [22],100
same,"Plant response rating, Velvetleaf",[12]; [23],30
same,"Plant response rating, Velvetleaf",[12]; [24],70
